The source of these data is patent US20060128721A1, “Novel formulations of opioid-based treatments of pain comprising substituted 1,4-di-piperidin-4-yl-piperazine derivatives” (priority 2003, published 2006).

For experiment [1], the target named is T1, cloned human h-NK1 receptors expressed in CHO cells (Homo sapiens, UniProt P25103).
T1 construct: expressed in transfected cells; host or cells: CHO cells
In words: Binding experiment for h-NK1 receptors ([3H]-Substance P displacement). The settings on record: read-out: h-NK1 pIC50 (converted). As for the experimental part:
(§1) The compounds according to the invention were investigated for interaction with various neurotransmitter receptors, ion channels and transporter binding sites using the radioligand binding technique. Membranes from tissue homogenates or from cells, expressing the receptor or transporter of interests, were incubated with a radioactively labelled substance ([^3H]- or [^125I] ligand) to label a particular receptor. […] Following incubation, labelled membranes were harvested and rinsed with excessive cold buffer to remove non-bound radioactivity by rapid filtration under suction. Membrane bound radioactivity was counted in a scintillation counter and results were expressed in counts per minute (cpm).
(§2) The compounds were dissolved in DMSO and tested at 10 concentrations ranging from 10^−10 to 10^−5 M.
(§3) The ability of the compounds according to the invention to displace [^3H]-Substance P from cloned human h-NK1 receptors expressed in CHO cells, to displace [^3H]-SR-48968 from cloned human h-NK2 receptors expressed in Sf9 cells, and to displace [^3H]-SR-142801 from cloned human h-NK3 receptors expressed in CHO cells was evaluated.

Experiment [2] addresses T2, cloned human h-NK2 receptors expressed in Sf9 cells (Homo sapiens, UniProt P21452).
T2 construct: expressed in transfected cells; host or cells: Sf9 cells
T2 sequence (P21452 1-398): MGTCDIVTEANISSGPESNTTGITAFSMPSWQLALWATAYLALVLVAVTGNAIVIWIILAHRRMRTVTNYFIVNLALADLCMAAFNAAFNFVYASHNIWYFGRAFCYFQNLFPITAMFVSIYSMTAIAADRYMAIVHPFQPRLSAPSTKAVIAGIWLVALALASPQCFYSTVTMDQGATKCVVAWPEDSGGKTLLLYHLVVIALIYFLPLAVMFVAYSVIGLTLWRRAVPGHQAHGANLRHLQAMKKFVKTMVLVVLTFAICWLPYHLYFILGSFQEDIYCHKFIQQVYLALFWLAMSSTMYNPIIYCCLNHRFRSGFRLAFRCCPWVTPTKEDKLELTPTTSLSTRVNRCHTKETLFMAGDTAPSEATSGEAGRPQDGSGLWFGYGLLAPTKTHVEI
In words: Binding experiment for h-NK2 receptors ([3H]-SR-48968 displacement). The settings on record: [3H]-SR-48968, Sf9 cells; read-out: h-NK2 pIC50 (converted). As for the experimental part: as §1, §2, §3

Experiment [3] deals with T3, cloned human h-NK3 receptors expressed in CHO cells (Homo sapiens, UniProt P29371).
T3 construct: expressed in transfected cells; host or cells: CHO cells
T3 sequence (P29371 1-465): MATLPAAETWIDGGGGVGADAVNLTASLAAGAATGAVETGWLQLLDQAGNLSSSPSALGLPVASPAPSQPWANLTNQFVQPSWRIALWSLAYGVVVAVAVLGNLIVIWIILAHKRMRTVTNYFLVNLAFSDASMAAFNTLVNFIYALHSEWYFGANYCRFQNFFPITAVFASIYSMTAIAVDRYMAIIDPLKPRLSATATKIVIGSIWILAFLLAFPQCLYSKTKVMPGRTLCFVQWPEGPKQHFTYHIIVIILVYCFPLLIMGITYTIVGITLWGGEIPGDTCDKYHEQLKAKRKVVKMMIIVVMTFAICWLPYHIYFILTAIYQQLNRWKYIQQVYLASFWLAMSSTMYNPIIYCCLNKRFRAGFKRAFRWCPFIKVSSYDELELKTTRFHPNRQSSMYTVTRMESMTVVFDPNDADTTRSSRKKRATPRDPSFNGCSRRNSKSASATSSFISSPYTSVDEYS
In words: Binding experiment for h-NK3 receptors ([3H]-SR-142801 displacement). The note with it: [3H]-SR-142801, CHO cells; read-out: h-NK3 pIC50 (converted). As for the experimental part:
as §1, §2, §3

For experiment [4], the system named is loperamide-induced retching. In words: Antiemetic effects: loperamide-induced retching in ferrets. Format: in vivo. The settings on record: ferrets. As for the experimental part:
The antiemetic effects have been determined using the loperamide-induced retching model (i.e. retching induced by an opioid) in ferrets. To exclude species differences in antiemetic activiey, both compounds have also been tested for antiemetic activity against apomorphine in dogs.
Antagonism of emesis induced by the peripherally selective opioid loperamide (0.31 mg/kg, s.c.) was studied over a 1 h-period starting immediately after the emetic challenge in ferrets pretreated with test compound or solvent. In control animals pre-treated with solvent, loperamide induced pronounced retching (mean±SD: 95±39 counts; n=[…]) and, to a lesser extent, vomiting (5±4).

Read-outs that look alike come from different tables or passages of the source.

T1 sequence (P25103 whole entry): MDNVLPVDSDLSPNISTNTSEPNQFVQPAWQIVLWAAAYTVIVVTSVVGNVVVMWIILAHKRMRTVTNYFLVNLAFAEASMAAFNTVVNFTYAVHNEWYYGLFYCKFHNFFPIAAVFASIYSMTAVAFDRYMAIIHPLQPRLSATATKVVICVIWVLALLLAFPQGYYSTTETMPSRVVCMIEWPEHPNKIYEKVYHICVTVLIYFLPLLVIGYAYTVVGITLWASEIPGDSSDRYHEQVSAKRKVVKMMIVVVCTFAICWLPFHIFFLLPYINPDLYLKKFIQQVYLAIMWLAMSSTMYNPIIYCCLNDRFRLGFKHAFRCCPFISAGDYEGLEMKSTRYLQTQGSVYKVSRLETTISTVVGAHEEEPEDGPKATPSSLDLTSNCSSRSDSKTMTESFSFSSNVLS

In the case of `Cc1nnsc1C(=O)N1CCC(N2CCN([C@@H]3CCN(C(=O)c4cc(C(F)(F)F)cc(C(F)(F)F)c4)[C@@H](Cc4ccccc4)C3)CC2)CC1` [Compound 141], the IC50 in experiment [1] was 7.94 nM; in experiment [2], 3980 nM; in experiment [3], 3980 nM.
Consider `Cc1oncc1C(=O)N1CCC(N2CCN(C3CCN(C(=O)c4cc(C(F)(F)F)cc(C(F)(F)F)c4)C(Cc4ccccc4)C3)CC2)CC1` (stereo not shown) [Compound 4], for which the IC50 was 1.58 nM in experiment [1], 6310 nM in experiment [2] and 200 nM in experiment [3].
For `O=C(c1ccccc1O)N1CCC(N2CCN([C@H]3CCN(C(=O)c4cc(C(F)(F)F)cc(C(F)(F)F)c4)[C@H](Cc4ccccc4)C3)CC2)CC1` [Compound 36], the IC50 in experiment [1] was 1 nM; in experiment [2] it was 794 nM; in experiment [3], 794 nM.
As for `Cc1nnsc1C(=O)N1CCC(N2CCN([C@@H]3CCN(C(=O)c4cc(C(F)(F)F)cc(C(F)(F)F)c4)[C@H](Cc4ccccc4)C3)CC2)CC1` [Compound 139], the results for the IC50 in experiment [1], in experiment [2] and in experiment [3] were 1.58 nM, 794 nM and 316 nM, respectively.
In the case of `O=C(c1snnc1CO)N1CCC(N2CCN(C3CCN(C(=O)c4cc(C(F)(F)F)cc(C(F)(F)F)c4)C(Cc4ccccc4)C3)CC2)CC1` (stereo not shown) [Compound 144], the IC50 in experiment [2] was 1260 nM; in experiment [3], 631 nM.
For the molecule `COc1cc(CC(=O)N2CCC(N3CCN([C@H]4CCN(C(=O)c5cc(C(F)(F)F)cc(C(F)(F)F)c5)[C@H](Cc5ccccc5)C4)CC3)CC2)cc(OC)c1OC` [Compound 106], the IC50 in experiment [1] is 1 nM; in experiment [2], 1000 nM; in experiment [3], 501 nM.
`O=C(C(c1ccccc1)N1CCOCC1)N1CCC(N2CCN([C@H]3CCN(C(=O)c4cc(C(F)(F)F)cc(C(F)(F)F)c4)[C@H](Cc4ccccc4)C3)CC2)CC1` (stereo partly shown) [Compound 116]: the results for the IC50 in experiment [1], in experiment [2] and in experiment [3] were 2.51 nM, 794 nM and 158 nM, respectively.
Consider `Cc1cc(C)cc(C(=O)N2CCC(N3CCN(C4CCN(C(=O)c5cc(C(F)(F)F)cc(C(F)(F)F)c5)C(Cc5ccccc5)C4)CC3)CC2Cc2ccccc2)c1` (single isomer, unassigned) [Compound 10], for which the IC50 in experiment [1] was 50.1 nM; in experiment [2], 398 nM; in experiment [3], 631 nM.
The corresponding values for `O=C(c1cc(F)cc(F)c1)N1CCC(N2CCN([C@H]3CCN(C(=O)c4cc(C(F)(F)F)cc(C(F)(F)F)c4)[C@H](Cc4ccccc4)C3)CC2)CC1` [Compound 51] are 1.26 nM, 631 nM and 398 nM.
The corresponding values for `Cc1cccc(C(=O)N2CCC(N3CCN([C@H]4CCN(C(=O)c5cc(C(F)(F)F)cc(C(F)(F)F)c5)[C@H](Cc5ccccc5)C4)CC3)CC2)c1` [Compound 37] are 3.98 nM, 501 nM and 251 nM.
Take `O=C(c1ccsc1)N1CCC(N2CCN(C3CCN(C(=O)c4cc(C(F)(F)F)cc(C(F)(F)F)c4)C(Cc4ccccc4)C3)CC2)CC1` (stereo not shown) [Compound 5]: the figures for the IC50 in experiment [1], in experiment [2] and in experiment [3] were 0.1 nM, 794 nM and 501 nM, respectively.
The corresponding values for `O=C(c1cccnc1)N1CCC(N2CCN([C@H]3CCN(C(=O)c4cc(C(F)(F)F)cc(C(F)(F)F)c4)[C@H](Cc4ccccc4)C3)CC2)CC1` [Compound 80] are 0.501 nM, 794 nM and 251 nM.
The corresponding values for `N#Cc1cccc(C(=O)N2CCC(N3CCN([C@H]4CCN(C(=O)c5cc(C(F)(F)F)cc(C(F)(F)F)c5)[C@H](Cc5ccccc5)C4)CC3)CC2)c1` [Compound 39] are 0.794 nM, 1000 nM and 1000 nM.
In the case of `Cc1nnsc1C(=O)N1CCC(N2CCN([C@H]3CCN(C(=O)c4cc(C(F)(F)F)cc(C(F)(F)F)c4)[C@H](Cc4ccccc4)C3)CC2)CC1` [Compound 77, (2-benzyl-4-{4-[1-(4-methyl-[1,2,3]thiadiazole-5-carbonyl)-piperidin-4-yl]-piperazin-1-yl}-piperidin-I -yl)-(3,5-bis-trifluoromethyl-phenyl)-methanone], the IC50 was 1 nM in experiment [1] and 794 nM in experiment [2]. Further, in experiment [4], the “ratio of oral ED50 (at time of peak effect) over subcutaneous ED50 (obtained at 1 h)” value was 1.1. Moreover, the ED50 turned out to be 0.26 mg/kg in experiment [4] (blockade (=0 retches), intravenous route, 1 h after administration, read-out: ED50 for blockade of loperamide-induced retching); 0.72 mg/kg in experiment [4] (blockade (=0 retches), oral route, 1 h after administration, read-out: ED50 for blockade of loperamide-induced retching); 0.42 mg/kg in experiment [4] (blockade (=0 retches), oral route, 2 h after administration, read-out: ED50 for blockade of loperamide-induced retching); 0.77 mg/kg in experiment [4] (blockade (=0 retches), oral route, 4 h after administration, read-out: ED50 for blockade of loperamide-induced retching); 0.34 mg/kg in experiment [4] (blockade (=0 retches), oral route, 8 h after administration, read-out: ED50 for blockade of loperamide-induced retching); 1.66 mg/kg in experiment [4] (blockade (=0 retches), oral route, 16 h after administration, read-out: ED50 for blockade of loperamide-induced retching). For the same molecule, the ED50 in experiment [4] (blockade (=0 retches), oral route, 32 h after administration, read-out: ED50 for blockade of loperamide-induced retching) was more than 2.5 mg/kg; in experiment [4] (inhibition (<20 retches), intravenous route, 1 h after administration, read-out: ED50 for inhibition of loperamide-induced retching) it was 0.15 mg/kg; in experiment [4] (inhibition (<20 retches), oral route, 1 h after administration, read-out: ED50 for inhibition of loperamide-induced retching), 0.31 mg/kg; in experiment [4] (inhibition (<20 retches), oral route, 2 h after administration, read-out: ED50 for inhibition of loperamide-induced retching) it was 0.08 mg/kg; in experiment [4] (inhibition (<20 retches), oral route, 4 h after administration, read-out: ED50 for inhibition of loperamide-induced retching), 0.26 mg/kg; in experiment [4] (inhibition (<20 retches), oral route, 8 h after administration, read-out: ED50 for inhibition of loperamide-induced retching), 0.29 mg/kg. For the same molecule, the ED50 is 0.73 mg/kg in experiment [4] (inhibition (<20 retches), oral route, 16 h after administration, read-out: ED50 for inhibition of loperamide-induced retching); approximately 2.5 mg/kg in experiment [4] (inhibition (<20 retches), oral route, 32 h after administration, read-out: ED50 for inhibition of loperamide-induced retching); 0.34 mg/kg in experiment [4] (oral administration, time of peak effect, read-out: graphically estimated peak-effect ED50 for blockade of retching (=0 retches)); 0.26 mg/kg in experiment [4] (iv, read-out: ED50 for blockade of retching 1 h after i.v. injection, i.v., 1 h); 0.15 mg/kg in experiment [4] (iv, read-out: ED50 for inhibition of retching 1 h after i.v. injection, i.v., 1 h); 0.42 mg/kg in experiment [4] (read-out: ED50 (95% confidence limits) for blockade of loperamide-induced retching, p.o. route (−2 h), loperamide 0.31 mg/kg s.c., 2 h after oral administration, blockade = 0 retches). The ED50 in experiment [4] (read-out: graphically estimated peak-effect ED50 for inhibition of retching (<20 retches), oral administration, time of peak effect) is 0.16 mg/kg; in experiment [4] (sc, read-out: ED50 for blockade of loperamide-induced retching, loperamide 0.31 mg/kg s.c., 1 h after subcutaneous administration, blockade = 0 retches), 0.32 mg/kg; in experiment [4] (sc, blockade (=0 retches), subcutaneous route, 1 h after administration, read-out: ED50 for blockade of loperamide-induced retching) it was 0.32 mg/kg; in experiment [4] (sc, inhibition (<20 retches), subcutaneous route, 1 h after administration, read-out: ED50 for inhibition of loperamide-induced retching), 0.18 mg/kg; in experiment [4] (sc, s.c., 1 h, <20 retches, read-out: ED50 for inhibition of retching one hour after s.c. injection), 0.18 mg/kg; in experiment [4] (sc, s.c., 1 h, =0 retches, read-out: ED50 for complete blockade of retching one hour after s.c. injection), 0.32 mg/kg. In addition, the duration of action in experiment [4] (oral, at 4 times the peak-effect dose) was determined as 16 h. Further, the “Ratio p.o./s.c. of ED50 for blockade of retching” value in experiment [4] (p.o. (−2 h) over s.c. (−1 h)) is listed as 1.3.
